Patent publication US20230099264A1, “Biomarker for Predicting Prognosis of Radiotherapy for Lung Cancer” (Korea Institute of Radiological & Medical Sciences, priority 2020, published 2023)

What was measured:
Assay type in all cases: cell-based, Human
[1] = system: IR-treated lung cancer cell line A549; experiment: Cell viability of IR-treated lung cancer cells under inhibitor treatment
[2] = system: RIP1; experiment: Western blot of RIP1 expression in IR-treated A549 cells; conditions: 24 hours
Experimental: In addition, lung cancer cell line A549 (control) and IR-treated lung cancer cell line A549 (IR) were seeded at 1×10^6 in a 60π dish and treated with EGFR inhibitor (EGFR inh), Src inhibitor (Src inh), and STAT3 inhibitor (STAT3 inh). The cells were treated by IR (IR-EGFR inh, IR-Src inh, and IR-STAT3 inh). The cells were harvested 24 hours later, and protein was extracted.
(§1) In addition, lung cancer cell line A549 (control) and IR-treated lung cancer cell line A549 (IR) were seeded at 1×10^6 in a 60π dish and treated with necrostatin. The cells were harvested 24 hours later, and protein was extracted. Then, Western blot was performed to confirm the expressions of RIP1, vimentin, MMP2, MMP9, p-EGFR, EGFR, β-action, p-Src, Src, p-STAT3, and STAT3, and the results are shown in FIGS. 4D and 4E.
In addition, lung cancer cell line A549 (control) and IR-treated lung cancer cell line A549 (IR) were seeded with 1×10^6 in a 60π dish and were treated with an NF-κB inhibitor. The cells were harvested 24 hours later, and protein was extracted. Then, Western blot was performed to confirm the expressions of RIP1, vimentin, MMP2, MMP9, p-IκBα, p-P65, p50, and p105.

[3] = system: IR-treated lung cancer cell line A549; experiment: Transwell invasion and migration assay of IR-treated lung cancer cells; conditions: IR (10 Gy)-treated A549, transwell, 24 hours
Experimental: Lung cancer cells (A549) (5×10^5) were seeded in 60 mm dishes and cultured overnight, followed by IR exposure (10 Gy) using a 137 Cs radiation source (Atomic Energy of Canada, Ltd., Mississauga, ON, Canada) to obtain IR-treated lung cancer cell lines (A549 IR (10 Gy)).
In order to analyze the cell invasion of lung cancer cells by IR treatment, Matrigel-coated transwells (Corning N. Y., USA) were used, and in order to analyze cell migration, collagen-coated transwells (Corning, N.Y., USA) were used.
(§2) Lung cancer cell line A549 (control) and IR-treated lung cancer cell line A549 (IR) were placed in an upper chamber by 5×10^4 in a Matrigel-coated transwell, and treated with EGFR, Scr, and STAT3 inhibitors, respectively. Then, 10% FBS medium was put into the lower chamber, and cells passing through the transwell were stained after 24 hours to confirm cell invasion, and the results are shown in FIGS. 3C and 3D.
as §2, with “transwell” for “transwell,”, “necrostatin.” for “EGFR, Scr, and STAT3 inhibitors, respectively.”, “4A” for “3C”, “4B. […]” for “3D.”

[4] = system: vimentin, MMP2, MMP9, p-EGFR, p-Src, p-STAT3; experiment: Western blot of EMT-related and signaling proteins in IR-treated A549 cells; conditions: 24 hours
Experimental: In addition, lung cancer cell line A549 (control) and IR-treated lung cancer cell line A549 (IR) were seeded at 1×10^6 in a 60π dish and treated with EGFR inhibitor (EGFR inh), Src inhibitor (Src inh), and STAT3 inhibitor (STAT3 inh). The cells were treated by IR (IR-EGFR inh, IR-Src inh, and IR-STAT3 inh). The cells were harvested 24 hours later, and protein was extracted. Then, Western blot was performed to confirm the expressions of RIP1, vimentin, MMP2, MMP9, p-Src, Src, p-STAT3, STAT3, and β-action, and the results are shown in FIG. 3B (EGFR inhibitor), FIG. 3C (Src inhibitor), and FIG. 3D (STAT3 inhibitor).
as §1
In addition, the same experiment as the above experiment was performed by treating a commercially available siRNA capable of inhibiting the expression of RIP1, and the results are shown in FIGS. 5A-5D.

[5] = system: vimentin, MMP-2/9, E-cadherin; experiment: Immunoblot analysis of EMT markers with or without IL-Ra under IR irradiation
Experimental: Immunoblot analysis of samples treated with or without IL-Ra (an antagonist of IL-1β) under IR irradiation conditions was performed, and the results are shown in FIG. 8A.

Molecule	cell viability compared with lung cancer cell line not treated with radiation (control) [1]	RIP1 expression [2]	cell invasion and cell migration [3]	activities/expression of vimentin, MMP2, MMP9, p-EGFR, p-Src, p-STAT3 (EMT-related factors) [4]	IR-induced increase of vimentin and MMP-2/9 expressions and decrease of E-cadherin [5]
CN1C(=O)C(Cc2c[nH]c3ccccc23)NC1=S (stereo not drawn) [necrostatin, Necrostatin-1]	almost similar	decreased expression	reduced	decreased activities	–
IL-Ra: an antagonist of IL-1β	–	–	almost completely blocked	–	inhibiting this action
